In PMC9939733 (The Journal of Biological Chemistry, 2023):
Residue numbers refer to the chain shown, from its start. Several values for one entry are separate records, joined by “and”; a condition that tells them apart may be missing. Identical values can stand only once.

Experiments:
Type in all cases: biochemical
[1] = target: T1, R140Q IDH2 (Homo sapiens, UniProt P48735, R140Q); assay: Absorbance assay, variant activity in the presence of equimolar 2OG (inhibition screen); conditions: 6.0 mM 2OG and 6.0 mM test compound, 0.03 μM R140Q IDH2, 50 μM NADPH
T1 construct: made in house; host or cells: Sf21 insect cells (cell pellets prepared at Evotec)
T1 sequence (P48735 40-452 R140Q): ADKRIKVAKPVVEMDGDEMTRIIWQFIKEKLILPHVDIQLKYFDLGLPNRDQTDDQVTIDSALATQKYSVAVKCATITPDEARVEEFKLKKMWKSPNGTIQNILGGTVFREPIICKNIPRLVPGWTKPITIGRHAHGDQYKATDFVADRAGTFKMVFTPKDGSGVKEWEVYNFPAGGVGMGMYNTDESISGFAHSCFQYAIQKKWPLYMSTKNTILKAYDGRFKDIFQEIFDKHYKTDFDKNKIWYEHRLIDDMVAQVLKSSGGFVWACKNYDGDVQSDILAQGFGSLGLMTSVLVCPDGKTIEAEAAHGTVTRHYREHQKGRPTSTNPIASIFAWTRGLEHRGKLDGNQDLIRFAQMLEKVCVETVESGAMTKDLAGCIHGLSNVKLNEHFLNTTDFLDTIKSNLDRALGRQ
In short: (§1)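 Tech. quadruplicates; cpds pipetted simultaneously, reaction initiated by dispenser addition.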

[2] = target: T2, R172K IDH2 (Homo sapiens, UniProt P48735, R172K); assay: as above; conditions: 1.0 mM 2OG and 1.0 mM test compound, 0.03 μM R172K IDH2, 50 μM NADPH
T2 construct: made in house; host or cells: Sf21 insect cells (cell pellets prepared at Evotec)
T2 sequence (P48735 40-452 R172K): T1 sequence (P48735 40-452 R140Q) with Q101R, R133K
In short: as §1

[3] = target: T3, WT IDH1 (Homo sapiens, UniProt O75874); assay: Absorbance assay, substrate activity in the absence of DL-isocitrate; conditions: no DL-isocitrate; […] test compound, 75 μM NADP+, 2.0 nM WT IDH1; compared to DL-isocitrate
T3 construct: made in house; host or cells: Escherichia coli BL21(DE3) pLyS
In short: as §1

[4] = target: T4, WT IDH2 (Homo sapiens, UniProt P48735); assay: as above; conditions: no DL-isocitrate; […] test compound, 75 μM NADP+, 2.0 nM WT IDH2; compared to DL-isocitrate
T4 construct: made in house; host or cells: Sf21 insect cells (cell pellets prepared at Evotec)
T4 sequence (P48735 40-452): T1 sequence (P48735 40-452 R140Q) with Q101R
In short: as §1

[5] = target: T3, WT IDH1; assay: Absorbance assay, WT activity in the presence of equimolar DL-isocitrate (inhibition); conditions: […] isocitrate and […] test compound, 75 μM NADP+, 2.0 nM WT IDH1
In short: as §1

[6] = target: T4, WT IDH2; assay: as above; conditions: […] isocitrate and […] test compound, 75 μM NADP+, 2.0 nM WT IDH2
In short: as §1

[7] = target: T5, R132C/S280F IDH1 (Homo sapiens, UniProt O75874, R132C/S280F); assay: Steady-state kinetics, NADPH turnover assay
T5 construct: made in house
Procedure: independent runs, each composed of technical duplicates (n = 2; mean ± SD); c) R132C/S280F IDH1 assays
monitoring NADPH turnover were performed as reported (3). […]

[8] = target: T1, R140Q IDH2; assay: Steady-state kinetics, absorbance assay; conditions: 0.03 μM enzyme, 50 μM NADPH, 20 mM MgCl2, pH 8.0
Procedure: (§2) Compounds were dispensed using a CyBio SDW-CW CyBi-Well Simultaneous Pipettor and assay started using a ThermoFisher Multidrop Combi reagent dispenser.
(§3) Reactions were performed as technical duplicates, and all assays were carried out in two independent duplicates.

[9] = target: T2, R172K IDH2; assay: Steady-state kinetics, absorbance assay; conditions: 0.03 μM enzyme, 50 μM NADPH, 20 mM MgCl2, pH 8.0
Procedure: as §2, §3

[10] = target: T6, R132H IDH1 (Homo sapiens, UniProt O75874, R132H); assay: Steady-state kinetics, absorbance assay; parameters: made in house; host or cells: Escherichia coli BL21(DE3) pLyS; conditions: for Kmapp / kcatapp: 0.03 μM enzyme, 50 μM NADPH, 20 mM MgCl2, pH 8.0
Procedure: as §2, §3
Target sequence in this assay (O75874 whole entry R132H): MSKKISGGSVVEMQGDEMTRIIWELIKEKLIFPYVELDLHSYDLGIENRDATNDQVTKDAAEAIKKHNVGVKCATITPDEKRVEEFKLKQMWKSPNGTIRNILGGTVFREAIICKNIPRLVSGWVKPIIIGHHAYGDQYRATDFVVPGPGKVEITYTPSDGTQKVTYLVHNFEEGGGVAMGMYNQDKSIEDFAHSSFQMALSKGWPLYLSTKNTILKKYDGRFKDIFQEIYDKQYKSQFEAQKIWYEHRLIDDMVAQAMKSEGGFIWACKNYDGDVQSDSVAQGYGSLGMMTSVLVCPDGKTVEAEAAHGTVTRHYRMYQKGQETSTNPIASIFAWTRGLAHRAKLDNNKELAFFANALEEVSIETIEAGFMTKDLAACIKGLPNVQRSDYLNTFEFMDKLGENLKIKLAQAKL

[11] = target: T6, R132H IDH1; assay: Absorbance assay, variant activity in the presence of equimolar 2OG (inhibition screen); parameters: made in house; host or cells: Escherichia coli BL21(DE3) pLyS; conditions: […] 2OG and […] test compound, 0.03 μM R132H IDH1, 50 μM NADPH
In short: as §1
Target sequence in this assay (O75874 whole entry R132H): as above

[12] = target: T6, R132H IDH1; assay: Electrochemical assay (FNR+R132H IDH1)@ITO/PGE electrode; parameters: made in house; host or cells: Escherichia coli BL21(DE3) pLyS (IDH1 R132H)
Procedure: Assays were carried out in an anaerobic glovebox (Glove Box Technology) under a nitrogen atmosphere. A potentiostat (Autolab PGSTAT 10) running on Nova software was used for all experiments. As previously described, the electrochemical apparatus included an Autolab electrode rotator, a two-chamber custom-made glass electrochemical cell, and custom-made rotating pyrolytic graphite edge (PGE) electrodes ([55]). Platinum wire was used as the counter electrode; it was placed in the working electrode chamber. Electrode potentials (E) were measured against a saturated calomel electrode and converted to the standard hydrogen electrode using a temperature-dependent equation (at 25 °C: ESHE = ESCE + 0.2412 V) ([55]). Nanoporous indium tin oxide (ITO) electrodes were made by electrophoretically depositing ITO nanoparticles (<50 nm, Sigma-Aldrich) onto PGE electrodes (ITO/PGE) as previously described ([55]). […] In all experiments, 0.85 nmol (homodimer basis) of IDH1 R132H was used; the amount of coloaded FNR was adjusted to achieve the desired enzyme loading ratio. Electrodes loaded with enzyme were thoroughly rinsed using buffer solution before each experiment to remove excess enzyme. […]
and controlled electrochemically under steady-state conditions (1).
Conditions: 25 °C, mixed buffer (20 […]
mM each MES, TAPS, CHES, pH 8.0), 10 mM MgCl2, 10 µM NADPH, 4 mL cell volume, (FNR+R132H IDH1)@ITO/PGE electrode, electrode area 0.06 cm2, rotated at 1000 rpm, E = –0.513 V vs SHE, enzyme loading ratios (molar): FNR/R132H IDH1; 2.5 (dimer basis).
(1 picture or pasted object on this page, not shown here)
Target sequence in this assay (O75874 2-414 R132H): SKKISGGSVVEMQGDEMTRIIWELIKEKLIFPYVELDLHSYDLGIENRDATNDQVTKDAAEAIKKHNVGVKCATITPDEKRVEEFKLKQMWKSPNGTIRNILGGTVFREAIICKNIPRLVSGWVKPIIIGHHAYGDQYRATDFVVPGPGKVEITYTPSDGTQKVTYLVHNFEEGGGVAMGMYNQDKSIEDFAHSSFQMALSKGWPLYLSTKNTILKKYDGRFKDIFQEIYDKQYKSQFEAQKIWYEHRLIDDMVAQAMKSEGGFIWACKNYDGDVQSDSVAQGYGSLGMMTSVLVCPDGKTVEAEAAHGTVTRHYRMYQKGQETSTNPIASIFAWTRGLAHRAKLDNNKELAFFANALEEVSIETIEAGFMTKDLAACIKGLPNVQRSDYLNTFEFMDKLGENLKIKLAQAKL

T3 sequence (O75874 whole entry): as the sequence (O75874 whole entry R132H) above, with H132R counted along it
T5 sequence (O75874 whole entry R132C/S280F): as the sequence (O75874 whole entry R132H) above, with H132C, S280F counted along it

SMILES | activity [%] (%-substrate conversion after 20 min incubation) [1] | activity [%] (%-substrate conversion after 20 min incubation) [2] | activity [%] (%-substrate conversion after 20 min incubation) [3] | activity [%] (%-substrate conversion after 20 min incubation) [4] | activity [%] (%-substrate conversion after 20 min incubation) [5] | activity [%] (%-substrate conversion after 20 min incubation) [6] | Kmapp [7] [mM] | kcatapp [7] [s⁻¹] | Kmapp [8] | kcatapp [8] [s⁻¹] | Kmapp [9] [mM] | kcatapp [9] | Kmapp [10] [mM] | kcatapp [10] [s⁻¹] | activity [%] (%-substrate conversion after 20 min incubation) [11] | decrease of R132H IDH1 faradaic 'coupled' current during each scan ([12]; cyclic voltammetry, stationary electrode, 20 μM NADPH, 10 mM MgCl2, pH 8) [%] | predicted change in catalytic rate ([12]; simulated from experimental Km and vmax, if 500 μM substrate consumed at the electrode-solution interface per scan) [%] | Vmax ([10]; experimental value used for Michaelis-Menten simulation, Fig. 3H) [µM/min]
CC(CC(=O)O)C(=O)C(=O)O (centres unmarked) [compound 1, 3-methyl-2OG] | 107 ± 4 | 151 ± 5 | < 10 | < 10 | 94±1 | 97±3 | 0.31 ± 0.01 | 20.2 ± 0.5 | 2.0 ± 0.8 mM and ~2.0 mM | 5.4 ± 0.3 | 4.2 ± 0.4 | 4.8 ± 0.2 s⁻¹ | 3.7 ± 0.1 | 6.9 ± 0.4 | 391 ± 20 | – | – | –
CCCCC(CC(=O)O)C(=O)C(=O)O (centres unmarked) [compound 4, 3-butyl-2OG] | 753 ± 72 | 126 ± 3 | < 10 | < 10 | 96±1 | 98±2 | 0.24 ± 0.01 | 15 ± 3 | 3.8 ± 0.8 mM and 3.8 to 7.5 mM | 9.7 ± 0.4 | 16 ± 5 | 7.8 ± 1.8 s⁻¹ and ~7.8 s⁻¹ | 5.7 ± 3.3 | 9.2 ± 0.4 | 376 ± 21 | – | – | –
CC(CC(=O)C(=O)O)C(=O)O (centres unmarked) [compound 12, 4-methyl-2OG] | 281 ± 4 | 112 ± 13 | < 10 | < 10 | 107±4 | 100±4 | – | – | – | – | – | – | 12 | – | 161 ± 26 | −43 | −22 | 9.6
